The results in this text go back to BindingDB's records for doi:10.1021/jm049161u (Pfizer, 2006).

Peptidyl-prolyl cis-trans isomerase FKBP1A (Bos taurus, UniProt P18203), sequence (P18203 whole entry): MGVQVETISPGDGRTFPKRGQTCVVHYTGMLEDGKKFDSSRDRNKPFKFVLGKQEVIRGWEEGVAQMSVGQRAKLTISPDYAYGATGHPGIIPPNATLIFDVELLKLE
Peptidyl-prolyl cis-trans isomerase FKBP1A (Homo sapiens, UniProt P62942), sequence (P62942 whole entry): as the sequence (P18203 whole entry) above, with V50M, N95H, I99V counted along it

For the first experiment, the target named is Peptidyl-prolyl cis-trans isomerase FKBP1A (Homo sapiens, UniProt P62942). In words: Peptidyl Prolyl Isomerase (PPIase) Inibition Assay. To be noted: pH 8; 15 °C. Here is the method:
(§1) It is based on the observation that chymotrypsin cleaves the C-terminal amide bond only in the trans conformer of the chromogenic substrate. The rapid hydrolysis perturbs the cis-trans conformational equilibrium, which allows one to monitor the PPIase-catalyzed cis-to-trans isomerization. […] Rate constants were generated from the absorbance versus time plots at 8-12 compound concentrations. The Kiapp was determined from the corrected rate constants using an IC50 equation or a tight-binding equation by Morrison.
As to `COc1cc2c(c(OC)c1)C1C3CCCC(C(=O)N1CC2)N3C(=O)C(=O)c1cc(Cl)ccc1Cl` (configuration not stated) [1-(2,5-dichlorophenyl)-2-{4,6-dimethoxy-12-oxo-11,17-diazatetracyclo[11.3.1.0^{2,11}.0^{3,8}]heptadeca-3(8),4,6-trien-17-yl}ethane-1,2-dione], the inhibitory constant (Ki) (in general, the dissociation constant of the complex between target and ligand, obtained from inhibition or displacement) stood at 8.1 µM.

A further experiment addresses Peptidyl-prolyl cis-trans isomerase FKBP1A (Bos taurus, UniProt P18203). In words: Peptidyl Prolyl Isomerase (PPIase) Inibition Assay.
Conditions: not given
Here is the method:
as §1
`COc1cc2c(c(OC)c1)C1C3CCCC(C(=O)N1CC2)N3C(=O)Nc1ccccc1` (configuration not stated) [4,6-dimethoxy-12-oxo-N-phenyl-11,17-diazatetracyclo[11.3.1.0^{2,11}.0^{3,8}]heptadeca-3(8),4,6-triene-17-carboxamide] yielded a Ki of 2.7 µM. With `COc1cc2c(c(OC)c1)C1C3CCCC(C(=O)N1CC2)N3C(=O)Nc1ccccc1OC` (configuration not stated) [4,6-dimethoxy-N-(2-methoxyphenyl)-12-oxo-11,17-diazatetracyclo[11.3.1.0^{2,11}.0^{3,8}]heptadeca-3(8),4,6-triene-17-carboxamide], the Ki was 0.357 µM. In turn, `COc1cc2c(c(OC)c1)C1C3CCCC(C(=O)N1CC2)N3C(=O)Nc1ccccc1C` (configuration not stated) [4,6-dimethoxy-N-(2-methylphenyl)-12-oxo-11,17-diazatetracyclo[11.3.1.0^{2,11}.0^{3,8}]heptadeca-3(8),4,6-triene-17-carboxamide] came in with a Ki of 0.33 µM. For the compound `COc1cc2c(c(OC)c1)C1C3CCCC(C(=O)N1CC2)N3C(=O)Nc1ccc([N+](=O)[O-])cc1` (configuration not stated) [4,6-dimethoxy-N-(4-nitrophenyl)-12-oxo-11,17-diazatetracyclo[11.3.1.0^{2,11}.0^{3,8}]heptadeca-3(8),4,6-triene-17-carboxamide], the Ki stood at 0.772 µM.

`COc1cc(OC)cc(N2C=C3C4CCCC(C(=O)N3CC2=O)N4C(=O)C(=O)c2cc(OC)c(OC)c(OC)c2)c1` (configuration not stated) [4-(3,5-dimethoxyphenyl)-13-[2-oxo-2-(3,4,5-trimethoxyphenyl)acetyl]-4,7,13-triazatricyclo[7.3.1.0^{2,7}]tridec-2-ene-5,8-dione] had a Ki of 0.054 µM. Against the preceding compound, the Ki is about 14-fold lower.

Compound `COc1cc2c(c(OC)c1)C1C3CCCC(C(=O)N1CC2)N3C(=O)Nc1ccc(F)cc1F` (configuration not stated) [N-(2,4-difluorophenyl)-4,6-dimethoxy-12-oxo-11,17-diazatetracyclo[11.3.1.0^{2,11}.0^{3,8}]heptadeca-3(8),4,6-triene-17-carboxamide] yielded an inhibition constant (Ki) of 7 µM. This Ki is about 130-fold higher than that of the compound before.
